We go through seven compounds from patent US7273873B2, “Camptothecins with a modified lactone ring” (Sigma-Tau Industrie Farmaceutiche Riunite S.p.A., priority 2002, dated 2007).

The structures appear in SMILES notation. Read-outs that look alike come from different tables or passages of the source. Bounds are passed on as bounds.

One data set has as its system NCI-H460. As to the kind of experiment: Antiproliferative (cytotoxicity) test, sulforhodamine B, NCI-H460 cells. In kind it is cell-based, human. From the text:
The cytotoxic activity of the compounds according to the present invention has been assayed in cell systems of human tumour cells, using the antiproliferative activity test as the method of evaluating the cytotoxic potential.
The cell line used is a non-microcytoma pulmonary adenocarcinoma called NCI H460, belonging to the NSCLC (non small cell lung cancer) class.
To evaluate the effect of the compounds according to the present invention, their cytotoxocity against the non-microcytoma lung cancer cell line (NCI-H460) was evaluated. Cells from the American Type Culture Collection (ATCC) were maintained in culture in RPMI 1640 (GIBCO) containing 10% foetal calf serum and gentamicin sulphate at a concentration of 50 µg/ml.
The cells were seeded in a volume of 250 μl in 96-well plates and incubated for 24 h at 37° C. The next day the study compounds were added at scalar concentrations from 1 μM to 0.004 μM, and the cells were incubated for another 2 h at 37° C. in a humidified atmosphere containing 5% CO2. The cells were washed 3 times, overturning the plates each time and adding PBS. 200 μl/well of RPMI 1640 medium containing 10% FCS were added and the plates were incubated at 37° C. for a further 72 h. On day 5, the growth medium was removed by overturning the plates, and 200 μl/well of PBS and 50 μl of 80% cold TCA were added. The plates were then incubated in ice for at least 1 h. The TCA was removed by overturning; the plates were washed 3 times by immersion in distilled water and dried first on blotting paper and then under a hot air jet. 200 μl of 0.4% sulforodamine B in 1% acetic acid were added to all wells. The plates were incubated at room temperature for a further 30 minutes. The sulforodamine B was removed by overturning; the plates were washed by immersion 3 times in 1% acetic acid and then dried first on blotting paper and then with a jet of hot air. 200 μl of Tris base 10 mM were added to all wells and the plates were subjected to stirring for at least 20 minutes. The optical density was measured using a Multiskan spectrophotometer at 540 nm.
Table 1 presents the IC50 values, that is to say the concentration capable of inhibiting 50% of cell survival, for each compound examined, processed using ALLFIT software.

Setting [1] is: 2 h exposure, 72 h recovery, sulforodamine B, concentration inhibiting 50% of cell survival, read-out: NCI-H460 IC50.

Turning to `CCC1(CC(=O)O)OC(=O)c2c1cc1n(c2=O)Cc2cc3ccccc3nc2-1` (centres unmarked) [ST2085, (3-ethyl-1,13-dioxo-11,13-dihydro-1H,3H-furor[3′,4′:6,7]indolizino[1,2-b]quinolin-3-yl)acetic acid], the IC50 with NCI-H460 (setting [1]) was above 1000 nM.
Consider `CCC1(O)CC(=O)OCc2c1cc1n(c2=O)Cc2c-1nc1ccccc1c2/C=N/OCc1ccccc1` (centres unmarked) [ST2143, R,S-7-benzyloxyiminomethyl-homocamptothecin], for which the IC50 with NCI-H460 (setting [1]) amounted to 7 nM.
The same measure, in the same setting: then `CCC1(O)CC(=O)OCc2c1cc1n(c2=O)Cc2c-1nc1ccccc1c2C=NOC(C)(C)C` (centres unmarked) [ST2127, R,S-7-(1-t-butoxy)iminomethyl-homocamptothecin], with 26 nM.
The same measure, in the same setting: in the case of `CCC1(CC(=O)OC(C)(C)C)OC(=O)c2c1cc1n(c2=O)Cc2cc3ccccc3nc2-1` (centres unmarked) [ST2084, Ter-butyl ester of (3-ethyl-1,13-dioxo-11,13-dihydro-1H,3H-furo[3′,4′:6,7]indolizino[1,2-b]quinolin-3-yl)acetic acid] it was above 1000 nM.
As to `CCC1(CC(=O)O)OC(=O)c2c1cc1n(c2=O)Cc2c-1nc1ccccc1c2/C=N/OCc1ccccc1` (centres unmarked) [ST2285, (10-{(E)-[(benzyloxy)imino]methyl}-3-ethyl-1,13-dioxo-11,13-dihydro-1H,3H-furo[3′,4′:6,7]indolizino[1,2-b]quinolin-3-yl)-acetic acid], the melting point was 188 °C (dec.). Also, the IC50 in the data set with NCI-H460 (Homo sapiens, NCI-H460, 2 h exposure, 72 h recovery, sulforodamine B, concentration inhibiting 50% of cell survival, read-out: NCI-H460 IC50) is above 1000 nM.
`CCC1(CC(=O)O)OC(=O)c2c1cc1n(c2=O)Cc2c-1nc1ccccc1c2/C=N/OC(C)(C)C` (centres unmarked) [ST2196, {10-[(E)-(ter-butoxyimino)methyl]-3-ethyl-1,13-dioxo-11,13-dihydro-1H,3H-furo[3′,4′:6.7]indolizino[1,2-b]quinolin-3-yl} acetic acid]: the IC50 with NCI-H460 (setting [1]) was above 1000 nM.
Regarding `CCC1(O)CC(=O)OCc2c1cc1n(c2=O)Cc2c-1nc1ccccc1c2C=NOC(C)(C)C` (centres unmarked) [ST2523], the IC50 with NCI-H460 (H460 cells, isolated enantiomers of ST2127, read-out: IC50 (H460)) was above 200 nM.
